Data as given in patent publication US20220073536A1 (Rigel Pharmaceuticals, Inc., priority 2003, published 2022).
Like-named read-outs stand apart in the source and are kept apart here.

Test system: cultured human mast cells (CHMC)
Assay: CHMC low cell density IgE activation: tryptase assay
Assay type: cell-based
Conditions: low cell density CHMC, IgE activation, tryptase
Summary of the method: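 CHMC were seeded at 1000–1500 cells/well in MT buffer and incubated 1 hr at 37 °C. They were then stimulated with anti-IgE for 30 min at 37 °C, with unstimulated wells as controls. Released tryptase in the supernatant was measured with a fluorogenic substrate after 30 min at room temperature.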

[1] = Homo sapiens, Mast cell, 3 pt, read-out: LD Tryptase, CHMC, IgE, 3 pt
[2] = Homo sapiens, Mast cell, 8 pt, read-out: LD Tryptase, CHMC, IgE, 8 pt

With Fc1cnc(Nc2ccc3cnn(CC4CCC4)c3c2)nc1Nc1ccc(Cl)c(Cl)c1 [Compound 731, N2-[1-(Cyclobutylmethyl)indazol-6-yl]-N4-(3,4-dichlorophenyl)-5-fluoro-2,4-pyrimidinediamine] the IC50 [1] was < 10 µM.

In the case of CC1(C)Oc2ccc(Nc3nc(Nc4ccc5cnn(CC6CCC6)c5c4)ncc3F)cc2NC1=O [Compound 732, N2-[1-(Cyclobutylmethyl)indazol-6-yl]-N4-(2,2-dimethyl-3-oxo-4H-benz[1,4]oxazin-6-yl)-5-fluoro-2,4-pyrimidinediamine], the IC50 [2] is reported as < 10 µM.

In the case of COc1cc(Nc2nc(Nc3ccc4cnn(CC5CCC5)c4c3)ncc2F)ccc1F [Compound 733, N2-[1-(Cyclobuylmethyl)indazol-6-yl)-5-fluoro-N4-(4-fluoro-3-methoxyphenyl)-2,4-pyrimidinediamine], the IC50 (3 pt, read-out: LD Tryptase, CHMC, IgE, 3 pt) is reported as < 10 µM.

COc1ccc(Nc2nc(Nc3ccc4c(cnn4CC4CC4)c3)ncc2F)cc1Cl [Compound 734, N4-(3-Chloro-4-methoxyphenyl)-N2-[1-(cyclopropylmethyl)indazol-5-yl]-5-fluoro-2,4-pyrimidinediamine] was tested, and the IC50 [2] was < 10 µM.

For Fc1cnc(Nc2ccc3c(cnn3CC3CC3)c2)nc1Nc1ccc(Cl)c(Cl)c1 [Compound 735, N2-[1-(Cyclopropylmethyl)indazol-5-yl]-N4-(3,4-dichlorophenyl)-5-fluoro-2,4-pyrimidinediamine], the IC50 [1] was < 10 µM.

For CC1(C)Oc2ccc(Nc3nc(Nc4ccc5c(cnn5CC5CC5)c4)ncc3F)cc2NC1=O [Compound 736, N2-[1-(Cyclopropylmethyl)indazol-5-yl]-N4-(2,2-dimethyl-3-oxo-4H-benz[1,4]oxazin-6-yl)-5-fluoro-2,4-pyrimidinediamine], the IC50 [2] was < 10 µM.

COc1cc(Nc2nc(Nc3ccc4c(cnn4CC4CC4)c3)ncc2F)ccc1F [Compound 737, N2-[1-(Cyclopropylmethyl)indazol-5-yl)-5-fluoro-N4-(4-fluoro-3-methoxyphenyl)-2,4-pyrimidinediamine] was tested, and the IC50 [2] was < 10 µM.

With COc1ccc(Nc2nc(Nc3ccc4cnn(CC5CC5)c4c3)ncc2F)cc1Cl [Compound 738, N4-(3-Chloro-4-methoxyphenyl)-N2-[1-(cyclopropylmethyl)indazol-6-yl]-5-fluoro-2,4-pyrimidinediamine] the IC50 [2] was < 10 µM.

In the case of Fc1cnc(Nc2ccc3cnn(CC4CC4)c3c2)nc1Nc1ccc(Cl)c(Cl)c1 [Compound 739, N2-[1-(Cyclopropylmethyl)indazol-6-yl]-N4-(3,4-dichlorophenyl)-5-fluoro-2,4-pyrimidinediamine], the IC50 [1] is reported as < 10 µM.

CC1(C)Oc2ccc(Nc3nc(Nc4ccc5cnn(CC6CC6)c5c4)ncc3F)cc2NC1=O [Compound 740, N2-[1-(Cyclopropylmethyl)indazol-6-yl]-N4-(2,2-dimethyl-3-oxo-4H-benz[1,4]oxazin-6-yl)-5-fluoro-2,4-pyrimidinediamine] was tested, and the IC50 [2] was < 10 µM.

For COc1cc(Nc2nc(Nc3ccc4cnn(CC5CC5)c4c3)ncc2F)ccc1F [Compound 741, N2-[1-(Cyclopropylmethyl)indazol-6-yl)-5-fluoro-N4-(4-fluoro-3-methoxyphenyl)-2,4-pyrimidinediamine], the IC50 [2] was < 10 µM.

For COc1ccc(Nc2nc(Nc3ccc4c(cnn4C4CCCCC4)c3)ncc2F)cc1Cl [Compound 742, N4-(3-Chloro-4-methoxyphenyl)-N2-(1-cyclohexylindazol-5-yl)-5-fluoro-2,4-pyrimidinediamine], the IC50 [1] was < 10 µM and the IC50 [2] was < 10 µM.

In the case of Fc1cnc(Nc2ccc3c(cnn3C3CCCCC3)c2)nc1Nc1ccc(Cl)c(Cl)c1 [Compound 743, N2-(1-Cyclohexylindazol-5-yl)-N4-(3,4-dichlorophenyl)-5-fluoro-2,4-pyrimidinediamine], the IC50 [1] is reported as < 10 µM.

With CC1(C)Oc2ccc(Nc3nc(Nc4ccc5c(cnn5C5CCCCC5)c4)ncc3F)cc2NC1=O [Compound 744, N2-(1-Cyclohexylindazol-5-yl)-N4-(2,2-dimethyl-3-oxo-4H-benz[1,4]oxazin-6-yl)-5-fluoro-2,4-pyrimidinediamine] the IC50 [2] was < 10 µM.

In the case of COc1cc(Nc2nc(Nc3ccc4c(cnn4C4CCCCC4)c3)ncc2F)ccc1F [Compound 745, N2-(1-Cyclohexylindazol-5-yl)-5-fluoro-N4-(4-fluoro-3-methoxyphenyl)-2,4-pyrimidinediamine], the IC50 [1] is reported as < 10 µM.

With COc1ccc(Nc2nc(Nc3ccc4cnn(C5CCCCC5)c4c3)ncc2F)cc1Cl [Compound 746, N4-(3-Chloro-4-methoxyphenyl)-N2-(1-cyclohexylindazol-6-yl)-5-fluoro-2,4-pyrimidinediamine] the IC50 [1] was < 10 µM.

With Fc1cnc(Nc2ccc3cnn(C4CCCCC4)c3c2)nc1Nc1ccc(Cl)c(Cl)c1 [Compound 747, N2-(1-Cyclohexylindazol-6-yl)-N4-(3,4-dichlorophenyl)-5-fluoro-2,4-pyrimidinediamine] the IC50 [1] was < 10 µM.

With CC1(C)Oc2ccc(Nc3nc(Nc4ccc5cnn(C6CCCCC6)c5c4)ncc3F)cc2NC1=O [Compound 748, N2-(1-Cyclohexylindazol-6-yl)-N4-(2,2-dimethyl-3-oxo-4H-benz[1,4]oxazin-6-yl)-5-fluoro-2,4-pyrimidinediamine] the IC50 [2] was < 10 µM.

With COc1cc(Nc2nc(Nc3ccc4cnn(C5CCCCC5)c4c3)ncc2F)ccc1F [Compound 749, N2-(1-Cyclohexylindazol-6-yl)-5-fluoro-N4-(4-fluoro-3-methoxyphenyl)-2,4-pyrimidinediamine] the IC50 [1] was < 10 µM.

In the case of Cc1n[nH]c2cc(Nc3ncc(F)c(Nc4ccc(Cl)c(Cl)c4)n3)ccc12 [Compound 750, N4-(3,4-Dichlorophenyl)-5-fluoro-N2-(3-methylindazol-6-yl)-2,4-pyrimidinediamine], the IC50 [1] is reported as < 10 µM and the IC50 [2] is reported as < 10 µM.

For Cc1n[nH]c2cc(Nc3ncc(F)c(Nc4ccc5c(c4)NC(=O)C(C)(C)O5)n3)ccc12 [Compound 751, N4-(2,2-Dimethyl-3-oxo-4H-benz[1,4]oxazin-6-yl)-5-fluoro-N2-(3-methylindazol-6-yl)-2,4-pyrimidinediamine], the IC50 [1] was < 10 µM and the IC50 [2] was < 10 µM.

In the case of COc1ccc(Nc2nc(Nc3ccc4c(C)nn(C)c4c3)ncc2F)cc1Cl [Compound 752, N4-(3-Chloro-4-methoxyphenyl)-N2-(1,3-dimethylindazol-6-yl)-5-fluoro-2,4-pyrimidinediamine], the IC50 [1] is reported as < 10 µM and the IC50 [2] is reported as < 10 µM.

In the case of Cc1nn(C)c2cc(Nc3ncc(F)c(Nc4ccc(Cl)c(Cl)c4)n3)ccc12 [Compound 753, N4-(3,4-Dichlorophenyl)-N2-(1,3-dimethylindazol-6-yl)-5-fluoro-2,4-pyrimidinediamine], the IC50 [1] is reported as < 10 µM and the IC50 [2] is reported as < 10 µM.

For Cc1nn(C)c2cc(Nc3ncc(F)c(Nc4ccc5c(c4)NC(=O)C(C)(C)O5)n3)ccc12 [Compound 754, N2-(1,3-Dimethylindazol-6-yl)-N4-(2,2-dimethyl-3-oxo-4H-benz[1,4]oxazin-6-yl)-5-fluoro-2,4-pyrimidinediamine], the IC50 [1] was < 10 µM and the IC50 [2] was < 10 µM.

For COc1cc(Nc2nc(Nc3ccc4c(C)nn(C)c4c3)ncc2F)ccc1F [Compound 755, N2-(1,3-Dimethylindazol-6-yl)-5-fluoro-N4-(4-fluoro-3-methoxyphenyl)-2,4-pyrimidinediamine], the IC50 [1] was < 10 µM and the IC50 [2] was < 10 µM.

COc1ccc(Nc2nc(Nc3cc4cnn(C)c4cc3C)ncc2F)cc1Cl [Compound 756, N4-(3-Chloro-4-methoxyphenyl)-N2-(1,6-dimethylindazol-5-yl)-5-fluoro-2,4-pyrimidinediamine] was tested, and the IC50 [1] was < 10 µM.

Cc1cc2c(cnn2C)cc1Nc1ncc(F)c(Nc2ccc(Cl)c(Cl)c2)n1 [Compound 757, N4-(3,4-Dichlorophenyl)-N2-(1,6-dimethylindazol-5-yl)-5-fluoro-2,4-pyrimidinediamine] was tested, and the IC50 [1] was < 10 µM.

For Cc1cc2c(cnn2C)cc1Nc1ncc(F)c(Nc2ccc3c(c2)NC(=O)C(C)(C)O3)n1 [Compound 758, N2-(1,6-Dimethylindazol-5-yl)-N4-(2,2-dimethyl-3-oxo-4H-benz[1,4]oxazin-6-yl)-5-fluoro-2,4-pyrimidinediamine], the IC50 [1] was < 10 µM and the IC50 [2] was < 10 µM.

With COc1cc(Nc2nc(Nc3cc4cnn(C)c4cc3C)ncc2F)ccc1F [Compound 759, N2-(1,6-Dimethylindazol-5-yl)-5-fluoro-N4-(4-fluoro-3-methoxyphenyl)-2,4-pyrimidinediamine] the IC50 [1] was < 10 µM.

In the case of CCn1cc2ccc(Nc3ncc(F)c(Nc4ccc(Cl)c(Cl)c4)n3)cc2n1 [Compound 760, N4-(3,4-Dichlorophenyl)-N2-(2-ethylindazol-6-yl)-5-fluoro-2,4-pyrimidinediamine], the IC50 [1] is reported as < 10 µM and the IC50 [2] is reported as < 10 µM.

With CCCn1cc2cc(Nc3ncc(F)c(Nc4ccc(Cl)c(Cl)c4)n3)ccc2n1 [Compound 762, N4-(3,4-Dichlorophenyl)-5-fluoro-N2-(2-n-propylindazol-5-yl)-2,4-pyrimidinediamine] the IC50 [1] was < 10 µM and the IC50 [2] was < 10 µM.

CCCn1cc2cc(Nc3ncc(F)c(Nc4ccc5c(c4)NC(=O)C(C)(C)O5)n3)ccc2n1 [Compound 763, N4-(2,2-Dimethyl-3-oxo-4H-benz[1,4]oxazin-6-yl)-5-fluoro-N2-(2-n-propylindazol-5-yl)-2,4-pyrimidinediamine] was tested, and the IC50 [1] was < 10 µM and the IC50 [2] was < 10 µM.

For CCCn1cc2ccc(Nc3ncc(F)c(Nc4ccc5c(c4)NC(=O)C(C)(C)O5)n3)cc2n1 [Compound 764, N4-(2,2-Dimethyl-3-oxo-4H-benz[1,4]oxazin-6-yl)-5-fluoro-N2-(2-n-propylindazol-6-yl)-2,4-pyrimidinediamine], the IC50 [1] was < 10 µM and the IC50 [2] was < 10 µM.

CCCn1cc2ccc(Nc3ncc(F)c(Nc4ccc(Cl)c(Cl)c4)n3)cc2n1 [Compound 765, N4-(3,4-Dichlorophenyl)-5-fluoro-N2-(2-n-propylindazol-6-yl)-2,4-pyrimidinediamine] was tested, and the IC50 [1] was < 10 µM and the IC50 [2] was < 10 µM.
